In brackets after ≈: the same amount, converted by molar mass.
Legend:
Type in all cases: functional
Staphylococcus aureus [1] = test: Minimum inhibition concentration against Staphylococcus aureus
Staphylococcus aureus [2] = test: Minimum inhibition concentration against Methicillin resistant Staphylococcus aureus
Enterococcus faecalis = test: Minimum inhibition concentration against Enterococcus faecalis

Row | SMILES | MIC (Staphylococcus aureus [1]) [µg/mL] | MIC (Staphylococcus aureus [2]) [µg/mL] | MIC (Enterococcus faecalis) [µg/mL]
1 | C[C@H]1c2ccc(-c3ccc(N)cc3)c(O)c2C(=O)C2=C(O)[C@]3(O)C(O)=C(C(N)=O)C(=O)[C@@H](N(C)C)C3[C@@H](O)C21 (stereo partly specified) | 3.12 (≈ 5.83 µM) | 1.56 (≈ 2.91 µM) | 3.12 (≈ 5.83 µM)
2 | C[C@H]1c2ccc(-c3ccccc3)c(O)c2C(=O)C2=C(O)[C@]3(O)C(O)=C(C(N)=O)C(=O)[C@@H](N(C)C)C3[C@@H](O)C21 (stereo partly specified) | 3.12 (≈ 5.99 µM) | 0.78 (≈ 1.5 µM) | 1.56 (≈ 3 µM)
3 | C=Cc1ccc2c(c1O)C(=O)C1=C(O)[C@]3(O)C(O)=C(C(N)=O)C(=O)[C@@H](N(C)C)C3[C@@H](O)C1[C@H]2C (stereo partly specified) | 1.56 (≈ 3.32 µM) | < 0.098 | < 0.098
4 | C[C@H]1c2ccc(-c3ccc([N+](=O)[O-])cc3)c(O)c2C(=O)C2=C(O)[C@]3(O)C(O)=C(C(N)=O)C(=O)[C@@H](N(C)C)C3[C@@H](O)C21 (stereo partly specified) | 3.12 (≈ 5.52 µM) | 0.39 (≈ 0.69 µM) | 0.78 (≈ 1.38 µM)
5 | C[C@H]1c2cccc(O)c2C(=O)C2=C(O)[C@]3(O)C(=O)C(C(N)=O)=C(O)[C@@H](N(C)C)[C@@H]3[C@@H](O)[C@@H]21.O [DOXYCYCLINE] | > 50 | 6.25 | 6.25
6 | C#Cc1ccc2c(c1O)C(=O)C1=C(O)[C@]3(O)C(O)=C(C(N)=O)C(=O)[C@@H](N(C)C)C3[C@@H](O)C1[C@H]2C (stereo partly specified) | 1.56 (≈ 3.33 µM) | 0.39 (≈ 0.833 µM) | 0.78 (≈ 1.67 µM)
7 | CN(C)c1ccc(O)c2c1C[C@H]1C[C@H]3[C@H](N(C)C)C(O)=C(C(N)=O)C(=O)[C@@]3(O)C(O)=C1C2=O [MINOCYCLINE] | 3.12 (≈ 6.82 µM) | 6.25 (≈ 13.7 µM) | < 0.098

From ChEMBL document CHEMBL1134864, “Synthesis and biological evaluation of 9-substituted tetracycline derivatives” (2002)
